Several values for one entry are separate records, joined by “and”; a condition that tells them apart may be missing. Equal entries are not always repeated. Entries after “also recorded” stand apart in the source; their conditions may differ.
What was measured:
[1] = Brain penetration index (BPI) determination, brain uptake relative to liver; type: in vivo, male balb C mice; conditions: for brain uptake / BPI relative to dopamine: compared with dopamine
From the text: A brain penetration index (BPI) determination was used as a criterion for measuring the capacity of a compound to cross the blood brain barrier. Shashoua, V. E., Jacob, J. N., Ridge, R., Campbell, A. and Baldessarini, R. J., J. Med. Chem. 27, 659 (1984). The BPI is a measure of the uptake of a compound by the brain relative to its uptake by the liver. The liver is chosen as a reference since it is an organ which has no barrier to diffusable molecules present in the blood. Moreover, even if subcutaneous injections are used, the injected material tends to remain largely at the site of the injection and slowly diffuse into the circulation. Therefore, the amount of material in the liver will reflect the amount available rather than the initial dose injected.
Measurements of the quantity of the drug present in the brain and liver were measured at five minutes after a subcutaneous injection and were used to calculate the BPI, the equation being: […]
For these measurements, compound 8739 was synthesized from ^14C-labeled dopamine. Thirty μCi of dopamine labeled hydrochloride was mixed with 0.1 mg of unlabeled dopamine hydrobromide and reacted with a two-fold excess of DHA anhydride. The reaction was run overnight; the product was then evaporated to dryness and dissolved in ethanol. The compound was identified as 8739 by its migration properties on thin-layer chromatography using chloroform:methanol as one solvent and dimethylformamide (DMF) as the other. The migration properties were equivalent to those of the unlabeled product.
^14C-labeled 8739 was dissolved in 15% propylene glycol in 0.1 M NaHCO3 and then injected subcutaneously (s.c.) into male balb C mice (20±2 g). After 5 minutes the animals were sacrificed by cervical fracture and the brain and liver were dissected out, weighed and homogenized in 8 and 10 ml of Brain Protein Solvent (BPS) buffer, respectively [BPS=2% sodium dodecyl sulfate in 0.03 M Tris, 6 M urea, pH 7.6, 0.01 M EDTA and 0.14 N NaCl]. Aliquots were then counted for ^14C content in 10 ml of a liquid scintillation fluid, Liquiscent (National Diagnostic Company, Somerville, N.J.) using a Beckman liquid scintillation counter. The ^14C counts were then used to calculate the total quantity of compound 8739 present in the brain per gram of tissue as compared to that in the liver. The ratio of the amount in the brain as a percent of that present in liver was determined.

[2] = Self-stimulation test (electrodes in lateral hypothalamus); type: in vivo; conditions: rats
From the text: A self-stimulation test has been used to measure the capacity of a given pharmacological agent to inhibit rats from receiving self-induced electrical stimuli via electrodes implanted in their brains (lateral hypothalamus). Stellar J. R. and Stellar E., The Neurobiology of Motivation and Reward, Springer-Verlag, New York, 1985. Animals will press levers to receive a pulse of current from the implanted electrode at a rate dependent upon the quantity of current that is being delivered as a reward. […] R.). […] A plot of the log of the frequency of the delivered pulses vs. the rate of level press for an animal gives the self-stimulation reward curve. Injections of drugs which have a neuroleptic-type or tranquilizing effect can depress the rate of self-stimulation, shifting the response to higher current deliveries. Pemozide can give a depressed rate by about 90%. […] The animal continues to press the lever at the rate equivalent to a non-injected control or one receiving the vehicle alone.

D-2 dopamine receptors = D-2 dopamine receptors (Homo sapiens, UniProt P14416); experiment: Dopamine receptor binding assay (D-2)
Swelling of the brain = experiment: Swelling of the brain
From the text: Another favorable property of compound 8739 was unexpected. […] Chan, P. H., Fishman, R. A., SCIENCE, Vol. 20, 358-360 (1978).

[3] = Pattern of distribution of 14C-labeled 8739 in membranes of the central nervous system (P1/P2 fractions); type: in vivo, mice
Description: The fraction P1 containing nuclear and cell membrane components was sedimented for 5 min at 2,500 rpm at 0° C. The supernatant containing the crude synaptosomal fraction was next centrifuged at 13,000 rpm for 30 min to yield a pellet containing the crude synaptosomal fraction (P2). P1 and P2 were then dissolved in BPS, and the amount of label and protein in each fraction was determined.

[4] = Food consumption measurements; type: in vivo, balb-c mice; conditions: oral administration, same experiment
Description: The effect of compound 8739 on food consumption was determined for balb-c mice that were food deprived for 24 hr, with water freely available. The six test mice were given an i.p. injection of compound 8739 as a solution in 15% propylene glycol in 0.1 M NaHCO3, a total volume of between about 0.1-0.3 ml. The six control mice received the same volume of vehicle, but no drug. The quantity of “mouse chow” eaten during the 60-min period following the injections was determined. The results, also shown in FIG. 1, are expressed as the percent decrease in food consumption for the test group versus the control group. […] The decrease was dose dependent, with higher doses of compound 8739 causing greater decrease in food intake. The same experiment was conducted using oral administration of compound 8739.

[5] = Circling behavior in rats with unilateral nigrostriatal lesions; type: in vivo; conditions: for AVERAGE ROTATION SCORES (Rotations/minutes) Contralateral / AVERAGE ROTATION SCORES (Rotations/minutes) Ipsilateral: 30-min period; for circling behavior (in words): rats with nigrostriatal lesions, i.p.
Description: Dopamine agonists such as apomorphine and amphetamine cause circling behavior in animals with nigrostriatal lesions.
Unilateral nigrostriatal lesions in rats were produced by administering unilateral injections of 6-OH dopamine into the nigrostriatum pathway. Seven days later, these animals were i.p. injected with the test drugs and circling behavior was recorded as rotations per minute during a 30-min period in the test apparatus, Ungerstedt U. and Arbathnott G. W., Brain Res. 24, 485-493 (1970).

[6] = Test for tolerance: food consumption during long-term administration; type: in vivo, mice; conditions: 20 mg/kg i.p. daily for 21 days, food intake
Description: The effect of long-term administration of compound 8739 on the pattern of food consumption of mice was compared to the long-term effects of the administration of amphetamine. Daily i.p. injections of compound 8739 (20 mg/kg) were given to test animals and daily i.p. injections of amphetamine (2 mg/kg) were given to control animals for 21 days. 24 hours after the first injection and about every five days after that, the animals were food-deprived for 24 hours with water freely available, and then were tested for food consumption for one-hour beginning at five minutes after receiving their daily injection.
FIG. 4 plots the percent decrease in food consumption versus time.

[7] = 14C-labeled, s.c. injection, mice, 5 minutes after injection
[8] = 14C-labeled 8739 s.c., mice, brain, 30 min

D-2 dopamine receptors, sequence (P14416 whole entry): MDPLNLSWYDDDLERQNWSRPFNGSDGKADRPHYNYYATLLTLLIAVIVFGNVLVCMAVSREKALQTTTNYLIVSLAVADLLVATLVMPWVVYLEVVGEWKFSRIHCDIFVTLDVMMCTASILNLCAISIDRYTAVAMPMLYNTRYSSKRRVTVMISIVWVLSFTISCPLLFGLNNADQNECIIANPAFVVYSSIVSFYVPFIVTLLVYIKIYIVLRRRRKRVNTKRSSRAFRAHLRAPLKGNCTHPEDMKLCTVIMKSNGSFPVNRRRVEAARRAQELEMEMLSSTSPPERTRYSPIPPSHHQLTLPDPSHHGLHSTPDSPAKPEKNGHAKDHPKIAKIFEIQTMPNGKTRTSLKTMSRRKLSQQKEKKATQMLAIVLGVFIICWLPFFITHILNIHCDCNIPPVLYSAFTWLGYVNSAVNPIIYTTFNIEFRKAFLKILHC

For `CC/C=C\C/C=C\C/C=C\C/C=C\C/C=C\C/C=C\CCC(=O)NCCc1ccc(O)c(O)c1` [Compound 8739], the “Brain (cpm/g)” value [1, 7] was 1305 cpm/g and 1297 cpm/g, the “Liver (cpm/g)” value [1, 7] was 4300 cpm/g and 3931 cpm/g and the “BPI Value (%)” value ([1]; BPI=[brain]/[liver]x100, 5 minutes after s.c. injection) was 30% and 33%. The “brain uptake / BPI relative to dopamine” value [1] was “eight times that of dopamine”, the “brain uptake / BPI relative to dopamine” value ([1]; listed as compound 8739) was “over eight-fold higher” and the “effect on self-stimulation parameters (reward, motor aspect, motivation)” value [2] was “no effect on either the reward or the motor aspect; also recorded: do not result”. For the same compound, the “binding to D-2 dopamine receptors” value (D-2 dopamine receptors) was “does not bind”, the “swelling of the brain” value (Swelling of the brain) was “did not induce any swelling” and the “P1 (Nuclear and Cell Membrane Fraction), CPM/mg Protein after 30 min of Uptake” value [3, 8] was 4.19 CPM/mg Protein and 2.7 CPM/mg Protein. The P2/P1 [3, 8] was 2.9 and 1.9 and 2.1, the “factor by which uptake into P2 was greater than into P1, average” value ([3]; average of the experiments of Table II) was 2.3 and the “food consumption, oral administration compared with i.p.” value [4] was “The results were the same”. The “AVERAGE ROTATION SCORES (Rotations/minutes) Contralateral” value ([5]; 34 mg/kg i.p.) was 0.05 Rotations/minutes, the “AVERAGE ROTATION SCORES (Rotations/minutes) Ipsilateral” value ([5]; 34 mg/kg i.p.) was 0.08 Rotations/minutes and the “AVERAGE ROTATION SCORES (Rotations/minutes) Contralateral” value ([5]; 51 mg/kg i.p.) was 0.12 Rotations/minutes. The “AVERAGE ROTATION SCORES (Rotations/minutes) Ipsilateral” value ([5]; 51 mg/kg i.p.) was 0.08 Rotations/minutes, the “circling behavior (in words)” value [5] was “failed to produce an effect; also recorded: did not evoke this behavior” and the “circling behavior (in words)” value ([5]; listed as compound 8739) was “do not result”. For the same compound, the tolerance [6] was “no tolerance had developed”.

Reference: patent US6407137B2, “Dopamine analog amide” (Protarga, Inc., priority 1988, dated 2002)
